Data taken from patent publication US20130053434A1, “IRREVERSIBLE INHIBITORS USEFUL FOR THE TREATMENT OF KINASE-RELATED PATHOLOGIES” (CENTRE NATIONAL DE LA RECHERCHE SCIENTIFIQUE, priority 2009, published 2013).
Where two headings read alike, the source gives them in different places. Each block holds one molecule with its values, some of them ahead of it.

Legend:
[1] = molecular target: T1, MEK2 (Homo sapiens, UniProt P36507); test: panel of 402 kinases: MEK2; format: binding; conditions: read-out: residual activity relatively to control
T1 construct: purchased KinomeScan
Method: (§1) Two representative library members (1afh and 1bgi) were then evaluated in a larger panel of kinases (402) using the technology described by Lockhart et al. (M. A. Fabian, et al., Nat. Biotechnol. 2005, 23, 329-336; M. W. Karaman, et al., Nat. Biotechnol. 2008, 26, 127-132). In this panel, 31 kinases out of the 46 kinases bioinformatically identified by Santi and coworkers are present along with numerous other kinases bearing a cysteine residue at other positions within the ATP-binding pocket (J. Zhang, P. L. Yang, N. S. Gray, Nat. Rev. Cancer 2009, 9, 28-39).
(§2) The selectivity profile was measure using the KinomeScan™ technology (http://www.kinomescan.com/) based on active-site dependent competition binding assay (Karaman, M. W., et al. (2008) Nat. Biotechnol. 26, 127-32; Fabian, M. A., et al. (2005) Nat. Biotechnol. 23, 329-36). Compounds 3 and 5 were profiled against a panel of 50 kinases including 42 kinases from the group of 48 kinases predicted by Santi et al. (Schirmer, A., et al. (2006) Proc. Natl. Acad. Sci. USA 103, 4234-9) to be targeted by hypothemycin and 5 mutants of FLT3 as well as 3 mutants of KIT. Both compounds were assayed at 1 μM. The results are expressed as a percentage of signal between a negative (DMSO) and positive (know binder) control [(test compound−positive control)/([…])×100].

[2] = molecular target: GSK3β (Homo sapiens, UniProt P49841); test: panel of 402 kinases: GSK3β; format: binding; conditions: 1 μM
Method: as §1, §2

[3] = tested on: Flt3 N841L; test: kinase mutants: Flt3 N841L; format: binding; conditions: gain of function mutation
Method: as §1
(§3) The two compounds were also evaluated against a series of mutations of Flt3 and KIT. It is known that several mutation in Flt3 lead to a gain of function or constitutive activity.

[4] = molecular target: KIT L576P (Homo sapiens, UniProt P10721, L576P); test: kinase mutants: KIT L576P; format: binding; conditions: gain of function mutation
Chain of KIT L576P (P10721 26-976 L576P): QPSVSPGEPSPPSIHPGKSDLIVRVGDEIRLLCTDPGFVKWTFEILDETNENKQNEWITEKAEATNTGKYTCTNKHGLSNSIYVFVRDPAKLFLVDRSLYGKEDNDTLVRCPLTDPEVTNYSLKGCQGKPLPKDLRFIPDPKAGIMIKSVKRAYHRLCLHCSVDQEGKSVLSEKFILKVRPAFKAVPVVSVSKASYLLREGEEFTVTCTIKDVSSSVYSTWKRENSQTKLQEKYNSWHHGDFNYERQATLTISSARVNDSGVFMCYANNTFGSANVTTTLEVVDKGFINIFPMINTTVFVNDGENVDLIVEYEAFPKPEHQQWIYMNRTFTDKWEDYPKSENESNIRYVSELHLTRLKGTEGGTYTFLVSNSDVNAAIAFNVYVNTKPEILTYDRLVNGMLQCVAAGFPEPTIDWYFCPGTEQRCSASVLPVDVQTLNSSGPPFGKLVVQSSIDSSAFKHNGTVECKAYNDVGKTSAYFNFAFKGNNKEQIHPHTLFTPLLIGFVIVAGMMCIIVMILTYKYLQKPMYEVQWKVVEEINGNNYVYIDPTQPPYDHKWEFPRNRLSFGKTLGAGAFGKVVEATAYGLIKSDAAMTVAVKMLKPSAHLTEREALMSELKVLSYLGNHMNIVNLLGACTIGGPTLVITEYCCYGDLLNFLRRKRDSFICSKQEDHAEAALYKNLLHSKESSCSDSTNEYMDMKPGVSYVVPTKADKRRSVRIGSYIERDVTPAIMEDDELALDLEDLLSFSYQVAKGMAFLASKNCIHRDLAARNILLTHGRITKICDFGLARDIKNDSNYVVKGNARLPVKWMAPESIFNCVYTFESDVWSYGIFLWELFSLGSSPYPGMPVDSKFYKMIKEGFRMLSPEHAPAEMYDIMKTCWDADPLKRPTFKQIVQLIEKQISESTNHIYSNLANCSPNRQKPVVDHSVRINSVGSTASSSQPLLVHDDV
Method: as §1, §3

[5] = molecular target: MEK1 (Homo sapiens, UniProt Q02750); test: panel of 402 kinases: MEK1; format: binding; conditions: read-out: residual activity relatively to control
Method: as §1, §2

[6] = molecular target: T2, Flt3 (Homo sapiens, UniProt P36888); test: panel of 402 kinases: Flt3; format: binding; conditions: read-out: residual activity relatively to control
T2 construct: purchased KinomeScan
Method: as §1, §2

[7] = molecular target: T3, PDGFRα (Homo sapiens, UniProt P16234); test: panel of 402 kinases: PDGFRα; format: binding; conditions: read-out: residual activity relatively to control
T3 construct: purchased KinomeScan
Method: as §1, §2

[8] = molecular target: T4, NIK (Homo sapiens, UniProt Q99558); test: panel of 402 kinases: NIK; format: binding; conditions: 1 μM
T4 construct: purchased KinomeScan
Method: as §1, §2

[9] = tested on: panel of kinases (402); test: larger panel of kinases (402), competition binding, whole panel; conditions: 1 μM; for number of kinases out of 31 with more than 50% residual activity: 31 of the 46 predicted kinases
Method: as §1, §2

[10] = molecular target: T5, MKNK1 (Homo sapiens, UniProt Q9BUB5); test: panel of 402 kinases: MKNK1; format: binding; conditions: read-out: residual activity relatively to control
T5 construct: purchased KinomeScan
Method: as §1, §2

[11] = molecular target: KIT V559D (Homo sapiens, UniProt P10721, V559D); test: kinase mutants: KIT V559D; format: binding; conditions: gain of function mutation
Chain of KIT V559D (P10721 26-976 V559D): as the sequence (P10721 26-976 L576P) above, with V534D, P551L counted along it
Method: as §1, §3

[12] = molecular target: T6, GAK (Homo sapiens, UniProt O14976); test: panel of 402 kinases: GAK; format: binding; conditions: read-out: residual activity relatively to control
T6 construct: purchased KinomeScan
Method: as §1, §2

[13] = molecular target: KIT (Homo sapiens, UniProt P10721); test: panel of 402 kinases: KIT; format: binding; conditions: read-out: residual activity relatively to control
Chain of KIT (P10721 26-976): as the sequence (P10721 26-976 L576P) above, with P551L counted along it
Method: as §1, §2

[14] = molecular target: Flt3 K663Q (Homo sapiens, UniProt P36888, K663Q); test: kinase mutants: Flt3 K663Q; format: binding; conditions: gain of function mutation
Method: as §1, §3

[15] = molecular target: T7, TAK1 (Homo sapiens, UniProt O43318); test: panel of 402 kinases: TAK1; format: binding; conditions: read-out: residual activity relatively to control
T7 construct: purchased KinomeScan
T7 sequence (O43318 whole entry): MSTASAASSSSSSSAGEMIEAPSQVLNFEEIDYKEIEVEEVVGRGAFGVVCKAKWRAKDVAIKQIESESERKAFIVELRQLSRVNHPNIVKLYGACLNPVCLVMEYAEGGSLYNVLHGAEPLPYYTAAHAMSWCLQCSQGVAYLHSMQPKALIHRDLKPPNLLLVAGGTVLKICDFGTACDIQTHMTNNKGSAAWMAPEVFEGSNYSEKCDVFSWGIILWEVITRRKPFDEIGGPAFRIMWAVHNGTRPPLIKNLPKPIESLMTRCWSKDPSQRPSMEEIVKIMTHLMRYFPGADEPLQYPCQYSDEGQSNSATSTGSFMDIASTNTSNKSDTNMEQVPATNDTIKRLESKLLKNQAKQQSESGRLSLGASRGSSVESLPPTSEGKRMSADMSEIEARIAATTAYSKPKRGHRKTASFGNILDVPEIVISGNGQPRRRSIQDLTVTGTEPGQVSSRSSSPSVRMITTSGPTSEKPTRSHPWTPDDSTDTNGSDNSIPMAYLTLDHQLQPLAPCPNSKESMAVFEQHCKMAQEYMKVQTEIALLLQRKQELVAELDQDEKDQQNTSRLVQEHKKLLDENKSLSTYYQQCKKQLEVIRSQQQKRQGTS
Method: as §1, §2

[16] = molecular target: T8, PRP4 (Homo sapiens, UniProt Q13523); test: panel of 402 kinases: PRP4; format: binding; conditions: 1 μM
T8 construct: purchased KinomeScan
Method: as §1, §2

[17] = molecular target: T9, CDKL5 (Homo sapiens, UniProt O76039); test: panel of 402 kinases: CDKL5; format: binding; conditions: 1 μM
T9 construct: purchased KinomeScan
Method: as §1, §2

[18] = molecular target: T10, TGFR2 (Homo sapiens, UniProt P37173); test: panel of 402 kinases: TGFR2; format: binding; conditions: read-out: residual activity relatively to control
T10 construct: purchased KinomeScan
Method: as §1, §2

[19] = molecular target: T11, Flt1 (Homo sapiens, UniProt P17948); test: panel of 402 kinases: Flt1; format: binding
T11 construct: purchased KinomeScan
T11 sequence (P17948 27-1338): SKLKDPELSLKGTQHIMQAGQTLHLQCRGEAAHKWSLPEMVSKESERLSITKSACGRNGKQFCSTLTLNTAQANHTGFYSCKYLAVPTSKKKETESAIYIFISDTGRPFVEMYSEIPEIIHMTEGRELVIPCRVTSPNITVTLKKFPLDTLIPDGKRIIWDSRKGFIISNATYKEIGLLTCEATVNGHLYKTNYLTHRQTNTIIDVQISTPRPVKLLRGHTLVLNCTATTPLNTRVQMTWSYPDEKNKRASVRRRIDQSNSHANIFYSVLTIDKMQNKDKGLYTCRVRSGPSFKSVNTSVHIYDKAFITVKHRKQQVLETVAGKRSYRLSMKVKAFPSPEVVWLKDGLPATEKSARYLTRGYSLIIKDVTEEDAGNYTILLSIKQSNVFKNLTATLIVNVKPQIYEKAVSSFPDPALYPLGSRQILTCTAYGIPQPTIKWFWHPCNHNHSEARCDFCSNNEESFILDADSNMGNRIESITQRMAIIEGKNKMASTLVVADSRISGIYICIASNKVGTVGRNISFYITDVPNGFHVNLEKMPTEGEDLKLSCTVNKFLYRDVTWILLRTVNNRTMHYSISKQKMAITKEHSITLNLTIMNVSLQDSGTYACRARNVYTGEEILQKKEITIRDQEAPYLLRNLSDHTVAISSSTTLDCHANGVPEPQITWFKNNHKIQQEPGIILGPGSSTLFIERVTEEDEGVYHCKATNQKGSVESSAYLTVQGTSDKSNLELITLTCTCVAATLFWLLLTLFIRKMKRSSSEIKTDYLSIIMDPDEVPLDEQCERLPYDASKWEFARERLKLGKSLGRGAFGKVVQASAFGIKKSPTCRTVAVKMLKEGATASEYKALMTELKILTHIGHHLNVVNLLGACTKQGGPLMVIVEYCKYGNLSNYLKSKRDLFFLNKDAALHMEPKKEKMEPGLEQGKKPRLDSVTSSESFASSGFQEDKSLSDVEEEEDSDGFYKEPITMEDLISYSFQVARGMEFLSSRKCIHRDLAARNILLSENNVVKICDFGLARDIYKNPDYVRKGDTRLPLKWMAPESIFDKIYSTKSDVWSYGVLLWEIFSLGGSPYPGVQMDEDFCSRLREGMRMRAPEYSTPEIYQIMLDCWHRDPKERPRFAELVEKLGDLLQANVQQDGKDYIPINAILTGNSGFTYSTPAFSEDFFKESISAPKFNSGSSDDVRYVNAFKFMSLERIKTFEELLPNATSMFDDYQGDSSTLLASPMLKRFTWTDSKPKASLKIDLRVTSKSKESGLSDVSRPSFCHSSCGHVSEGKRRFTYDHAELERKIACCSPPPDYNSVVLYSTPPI
Method: as §1, §2

[20] = molecular target: Flt3 D835Y (Homo sapiens, UniProt P36888, D835Y); test: kinase mutants: Flt3 D835Y; format: binding; conditions: gain of function mutation
Method: as §1, §3

[21] = molecular target: T12, MKNK2 (Homo sapiens, UniProt Q9HBH9); test: panel of 402 kinases: MKNK2; format: binding; conditions: read-out: residual activity relatively to control
T12 construct: purchased KinomeScan
Method: as §1, §2

[22] = molecular target: T13, ERK1 (Homo sapiens, UniProt P27361); test: panel of 402 kinases: ERK1; format: binding; conditions: 1 μM
T13 construct: purchased KinomeScan
T13 sequence (P27361 whole entry): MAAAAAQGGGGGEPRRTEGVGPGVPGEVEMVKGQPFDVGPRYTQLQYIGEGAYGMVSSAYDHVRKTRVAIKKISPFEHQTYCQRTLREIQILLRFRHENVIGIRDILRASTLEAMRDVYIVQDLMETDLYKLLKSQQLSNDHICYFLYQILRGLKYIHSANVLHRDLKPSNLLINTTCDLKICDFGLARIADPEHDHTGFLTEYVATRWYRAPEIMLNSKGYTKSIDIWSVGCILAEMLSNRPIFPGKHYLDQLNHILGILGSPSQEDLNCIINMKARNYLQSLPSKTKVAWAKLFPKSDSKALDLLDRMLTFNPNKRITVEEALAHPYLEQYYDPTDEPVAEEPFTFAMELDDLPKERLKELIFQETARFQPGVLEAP
Method: as §1, §2

[23] = molecular target: T14, PDGFRβ (Homo sapiens, UniProt P09619); test: panel of 402 kinases: PDGFRβ; format: binding
T14 construct: purchased KinomeScan
T14 sequence (P09619 33-1106): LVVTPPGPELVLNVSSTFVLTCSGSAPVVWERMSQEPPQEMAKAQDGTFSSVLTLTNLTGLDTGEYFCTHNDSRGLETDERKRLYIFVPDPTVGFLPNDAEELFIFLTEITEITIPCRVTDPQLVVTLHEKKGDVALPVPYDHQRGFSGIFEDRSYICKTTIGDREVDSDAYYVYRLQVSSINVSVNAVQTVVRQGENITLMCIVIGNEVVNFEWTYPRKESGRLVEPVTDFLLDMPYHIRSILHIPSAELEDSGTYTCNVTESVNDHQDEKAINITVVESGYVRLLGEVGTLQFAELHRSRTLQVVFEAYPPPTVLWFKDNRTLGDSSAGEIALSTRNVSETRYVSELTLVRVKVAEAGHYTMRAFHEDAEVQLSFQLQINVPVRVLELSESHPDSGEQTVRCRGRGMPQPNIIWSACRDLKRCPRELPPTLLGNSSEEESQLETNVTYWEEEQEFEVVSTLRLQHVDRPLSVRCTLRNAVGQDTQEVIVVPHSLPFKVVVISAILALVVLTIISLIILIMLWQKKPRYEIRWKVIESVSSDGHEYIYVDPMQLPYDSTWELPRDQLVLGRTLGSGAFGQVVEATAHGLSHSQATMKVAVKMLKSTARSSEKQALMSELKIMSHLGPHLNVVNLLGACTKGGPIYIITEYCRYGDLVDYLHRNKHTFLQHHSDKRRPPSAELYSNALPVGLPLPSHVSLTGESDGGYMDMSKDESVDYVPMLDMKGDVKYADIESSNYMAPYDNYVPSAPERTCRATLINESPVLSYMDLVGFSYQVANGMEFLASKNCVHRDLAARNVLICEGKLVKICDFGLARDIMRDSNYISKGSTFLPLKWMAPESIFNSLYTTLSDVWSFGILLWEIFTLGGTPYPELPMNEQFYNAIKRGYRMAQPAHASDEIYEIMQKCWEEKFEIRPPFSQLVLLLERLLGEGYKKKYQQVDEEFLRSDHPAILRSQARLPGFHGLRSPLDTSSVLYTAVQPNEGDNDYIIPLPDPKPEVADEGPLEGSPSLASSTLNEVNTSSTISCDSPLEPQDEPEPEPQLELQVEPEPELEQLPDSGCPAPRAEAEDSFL
Method: as §1, §2

[24] = molecular target: KIT V559D, T670I (Homo sapiens, UniProt P10721, T670I/V559D); test: kinase mutants: KIT V559D, T670I; format: binding; conditions: dual mutation conferring resistance to imatinib
Chain of KIT V559D, T670I (P10721 26-976 V559D/T670I): as the sequence (P10721 26-976 L576P) above, with V534D, P551L, T645I counted along it
Method: as §1, §3

[25] = molecular target: KIT V559D, V654A (Homo sapiens, UniProt P10721, V559D/V654A); test: kinase mutants: KIT V559D, V654A; format: binding; conditions: dual mutation conferring resistance to imatinib
Chain of KIT V559D, V654A (P10721 26-976 V559D/V654A): as the sequence (P10721 26-976 L576P) above, with V534D, P551L, V629A counted along it
Method: as §1, §3

[26] = molecular target: KIT D816V (Homo sapiens, UniProt P10721, D816V); test: kinase mutants: KIT D816V; format: binding; conditions: gain of function mutation
Chain of KIT D816V (P10721 26-976 D816V): as the sequence (P10721 26-976 L576P) above, with P551L, D791V counted along it
Method: as §1, §3

[27] = molecular target: T15, NLK (Homo sapiens, UniProt Q9UBE8); test: panel of 402 kinases: NLK; format: binding; conditions: 1 μM
T15 construct: purchased KinomeScan
T15 sequence (Q9UBE8 whole entry): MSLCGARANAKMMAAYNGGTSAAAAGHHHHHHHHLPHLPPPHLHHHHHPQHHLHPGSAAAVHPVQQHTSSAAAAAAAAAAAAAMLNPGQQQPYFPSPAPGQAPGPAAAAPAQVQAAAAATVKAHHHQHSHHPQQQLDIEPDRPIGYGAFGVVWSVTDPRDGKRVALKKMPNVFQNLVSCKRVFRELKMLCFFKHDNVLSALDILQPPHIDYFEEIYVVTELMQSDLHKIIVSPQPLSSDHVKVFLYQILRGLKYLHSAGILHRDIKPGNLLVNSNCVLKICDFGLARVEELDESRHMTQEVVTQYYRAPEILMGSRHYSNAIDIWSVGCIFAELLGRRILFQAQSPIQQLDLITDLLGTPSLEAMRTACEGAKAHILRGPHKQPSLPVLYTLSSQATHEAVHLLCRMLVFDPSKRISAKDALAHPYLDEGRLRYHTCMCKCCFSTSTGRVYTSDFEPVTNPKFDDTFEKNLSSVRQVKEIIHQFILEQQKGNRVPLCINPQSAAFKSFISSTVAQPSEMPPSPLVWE
Method: as §1, §2

[28] = ester bond, DIAD/PPh3, toluene, 10.5 mM, 23.0 °C
[29] = molecular target: T16, MEK4 (Homo sapiens, UniProt P45985); test: panel of 402 kinases: MEK4; format: binding; conditions: read-out: residual activity relatively to control
T16 construct: purchased KinomeScan
Method: as §1, §2

[30] = read-out: residual activity relatively to control

Structure (SMILES): C[C@H]1C/C=C\C(=O)[C@@H](O)[C@@H](O)CCCc2cc(O)cc(O)c2C(=O)O1 [1afh]
- remaining activity at 1 µM [1]: < 10%
- inhibition [2]: not inhibited
- sensitivity of mutant to the inhibitors [3]: remained equally sensitive
- activity against mutant [4]: retained their activity
- remaining activity at 1 µM [5]: < 10%
- remaining activity at 1 µM [6]: < 10%
- remaining activity at 1 µM [7]: < 10%
- inhibition [8]: not inhibited
- number of kinases outside of the set of 46 predicted kinases showing significant inhibition (STK36 and PRKD2) [9]: two
- number of kinases out of 31 with more than 50% residual activity [9]: 11
- remaining activity at 1 µM [10]: < 10%
- activity against mutant [11]: retained their activity
- remaining activity at 1 µM [12]: < 10%
- remaining activity at 1 µM [13]: < 10%
- sensitivity of mutant to the inhibitors [14]: remained equally sensitive
- remaining activity at 1 µM [15]: < 10%
- inhibition [16]: not inhibited
- inhibition [17]: not inhibited
- remaining activity at 1 µM [18]: < 10%
- remaining activity at 1 µM [19, 30]: < 10%
- activity against mutant compared with wild type [20]: more active than against the wild type
- remaining activity at 1 µM [21]: < 10%
- inhibition [22]: not inhibited
- remaining activity at 1 µM [23, 30]: < 10%
- activity against dual mutation [24]: not active
- activity against dual mutation [25]: not active
- activity against mutant [26]: retained their activity
- inhibition [27]: not inhibited

Structure (SMILES): CCOCOc1cc2c(c(OCOCC)c1)C(=O)O[C@@H](C)C/C=C\C(OC(=O)c1ccccc1)[C@H]1OC(C)(C)O[C@H]1CC/C=C/2 (stereo partly shown)
- ring closure, yield of all isomers ([28]; from CCOCOc1cc(/C=C/CC[C@@H]2OC(C)(C)O[C@@H]2C(/C=C\C[C@@H](C)O)OC(=O)c2ccccc2)c(C(=O)O)c(OCOCC)c1, 2.0 h): 70%

Structure (SMILES): CCOCOc1cc2c(c(OCOCC)c1)C(=O)O[C@@H](C)C/C=C(/F)C(OC(=O)c1ccccc1)[C@H]1OC(C)(C)O[C@H]1CCO2 (stereo partly shown)
- ring closure, yield of all isomers ([28]; from CCOCOc1cc(OCC[C@@H]2OC(C)(C)O[C@@H]2C(OC(=O)c2ccccc2)/C(F)=C\C[C@@H](C)O)c(C(=O)O)c(OCOCC)c1, 1.5 h, 2 steps): 70%

- sensitivity of mutant to the inhibitors [3]: remained equally sensitive
- activity against mutant [4]: retained their activity
- number of kinases outside of the set of 46 predicted kinases showing significant inhibition (STK36 and PRKD2) [9]: two
- number of kinases out of 31 with more than 50% residual activity [9]: 19
- activity against mutant [11]: retained their activity
- remaining activity at 1 µM [29]: 1%
- sensitivity of mutant to the inhibitors [14]: remained equally sensitive
- activity compared to 1afh ([19]; 1 μM): ten times less active
- activity against mutant compared with wild type [20]: more active than against the wild type
- activity compared to 1afh ([23]; 1 μM): ten times less active
- activity against dual mutation [24]: not active
- activity against dual mutation [25]: not active
- activity against mutant [26]: retained their activity
Structure (SMILES): O=C1OCC/C=C\C(=O)[C@@H](O)[C@@H](O)[C@H](O)COc2cc(O)cc(O)c21 [1bgi]
